Data as given in EP0520604A2, “Monoclonal antibody against pentacyclic oleanan-type triterpene and use thereof” (MINOPHAGEN PHARMACEUTICAL COMPANY, priority 1991, dated 1992).

Tests used:
Test in all cases: Inhibition ELISA (cross reactivity), solidified GA-BSA conjugate as antigen
Assay type in all cases: binding, mouse
[1] = tested on: monoclonal antibody produced by a strain GA2-20-1; conditions: for 50 % inhibition concentration (IC 50): monoclonal antibody 2-20-1, 50-fold diluted, from inhibition curves; for cross reactivity: monoclonal antibody 2-20-1, values in parenthesis, relative to (GA)
Procedure: (§1) Inhibition ELISA comprises sequentially incubating the solidified GA-BSA conjugate with glycyrrhetic acid or a sample together with the antibody, bonding the enzyme-labeled anti-mouse IgG to the resulting incubation mixture, thereby measuring the enzyme activity. The antibody bonded to the antigen contained in the sample cannot be bonded to the solidified antigen, and therefore, the amount of the enzyme bonded is reduced. By measuring the enzyme activity, glycyrrhetic acid contained in the sample can be measured. The amount of glycyrrhizin can be determined by measuring glycyrrhetic acid generated by the acid hydrolysis of glycyrrhizin.
(§2) According to direct ELISA, the antibody solution is divided into each well; according to inhibition ELISA, glycyrrhetic acid or a sample solution is divided into each well together with the antibody solution. After left to stand at ambient temperature, the wells are washed before the division of an enzyme-labeled anti-mouse IgG solution, and then the wells are left to stand at ambient temperature.
(§3) After washing each well again, a solution of a dye which develops color on enzyme reaction is divided into the washed wells for reaction. After the completion of the reaction, the absorbance of each well at 405 nm is measured with an immunoreader. By comparing the results with the values obtained from known amounts of the antigen, glycyrrhetic acid can be assayed.
(§4) The cross reactivity to the following individual compounds was examined according to inhibition ELISA. • (1) 18α H-Olean-11-oxo-12ene-30-oic acid • (2) Olean-12ene-3,11-dioxo-30-oic acid • (3) Olean-12ene-3α-hydroxy-11-oxo-30-oic- acid • (4) Olean-12ene-11-oxo-3β, 30-diol • (5) Cholic acid • (6) Deoxy cholic acid • (7) Glycyrrhetlc acid (GA) • (8) Glycyrrhizin (GL) These are illustrated as compounds (1), (2), (3), (4), (5), (6), (GA) and (GL).
(§5) One hundred µℓ each of the GA-BSA solution (10 µg/mℓ) was divided in the wells of a 96-well microtiter plate and left to stand overnight at 4° C. After removing the antigen solution, 100 µℓ each of the BSA-PBS was divided and left to stand at 37° C for one hour.
(§6) The 50-fold diluted antibody and each of the compounds were individually adjusted to 10 ng/mℓ, 100 ng/mℓ and 1000 ng/mℓ. Fifty µℓ each of the adjusted solution was divided in each well. After left to stand at ambient temperature for 30 minutes, the wells were washed three times with the PBS containing 0.05 % Tween 20, and washed twice with PBS, followed by the division of the 5000-fold dilution of goat anti-mouse IgG labeled with alkaline phosphatase, and left to stand at room temperature for 30 minutes.
(§7) After each well was washed following the same procedure described above, 100 µℓ each of 1M diethanolamine buffer (pH 9.8) containing p-nitrophenyl phosphate at a concentration of 1 mg/mℓ was divided and reacted at 37° C for 30 minutes. After the completion of the reaction, 2M sodium hydroxide was added. Then, the absorbance at 405 nm of each well was measured with an immunoreader.
(§8) From the inhibition curves obtained, 50 % inhibition concentration (IC 50) of each compound was determined. The antibody generated by the strain GA2-20-1, among the three strains, had the highest specificity.

[2] = tested on: monoclonal antibody produced by a strain GA2-20-6; conditions: for 50 % inhibition concentration (IC 50): monoclonal antibody 2-20-6, 50-fold diluted, from inhibition curves; for cross reactivity: monoclonal antibody 2-20-6, values in parenthesis, relative to (GA)
Procedure: as §1, §2, §3, §4, §5, §6, §7, §8

[3] = tested on: monoclonal antibody produced by a strain GA2-20-3; conditions: for 50 % inhibition concentration (IC 50): monoclonal antibody 2-20-3, 50-fold diluted, from inhibition curves; for cross reactivity: monoclonal antibody 2-20-3, values in parenthesis, relative to (GA)
Procedure: as §1, §2, §3, §4, §5, §6, §7, §8

Row | 50 % inhibition concentration (IC 50) [1] | 50 % inhibition concentration (IC 50) [2] | 50 % inhibition concentration (IC 50) [3] | Molecule | cross reactivity [1] | cross reactivity [2] | cross reactivity [3]
1 | 0.0876 µg/mL | 0.0975 µg/mL | 0.0878 µg/mL | 18α H-Olean-11-oxo-12ene-30-oic acid [compound (1)] | (18.2) % | (45.5) % | (37.5) %
2 | 0.0159 µg/mL | 0.0444 µg/mL | 0.0329 µg/mL | Glycyrrhetlc acid [(GA)] |  |  | 
3 | >1 µg/mL | >1 µg/mL | >1 µg/mL | CC1(C)[C@@H](O[C@H]2O[C@H](C(=O)O)[C@@H](O)[C@H](O)[C@H]2O[C@@H]2O[C@H](C(=O)O)[C@@H](O)[C@H](O)[C@H]2O)CC[C@]2(C)[C@H]3C(=O)C=C4[C@@H]5C[C@@](C)(C(=O)O)CC[C@]5(C)CC[C@@]4(C)[C@]3(C)CC[C@@H]12 [(GL), Glycyrrhizin] | (<1.6) % | (<1.6) % | (<1.6) %

The remaining lines, values behind:

Row | Molecule | 50 % inhibition concentration (IC 50) [1] | 50 % inhibition concentration (IC 50) [2] | 50 % inhibition concentration (IC 50) [3] | cross reactivity [1] | cross reactivity [2] | cross reactivity [3]
4 | C[C@H](CCC(=O)O)[C@H]1CC[C@H]2[C@@H]3[C@H](O)C[C@@H]4C[C@H](O)CC[C@]4(C)[C@H]3C[C@H](O)[C@]12C [compound (5), Cholic acid] | >1 µg/mL | >1 µg/mL | >1 µg/mL | (<1.6) % | (<1.6) % | (<1.6) %
5 | CC1(C)[C@@H](O)CC[C@]2(C)[C@H]3C(=O)C=C4[C@@H]5C[C@@](C)(CO)CC[C@]5(C)CC[C@@]4(C)[C@]3(C)CC[C@@H]12 [(4), Olean-12ene-11-oxo-3β, 30-diol] | 0.4372 µg/mL | 0.4254 µg/mL | 0.4767 µg/mL | ( 3.6) % | (10.4) % | ( 6.9) %
6 | CC1(C)C(=O)CC[C@]2(C)[C@H]3C(=O)C=C4[C@@H]5C[C@@](C)(C(=O)O)CC[C@]5(C)CC[C@@]4(C)[C@]3(C)CC[C@@H]12 [(2), Olean-12ene-3,11-dioxo-30-oic acid] | 0.8317 µg/mL | >1 µg/mL | 0.9571 µg/mL | ( 1.9) % | (<1.6) % | ( 3.4) %
7 | CC1(C)[C@H](O)CC[C@]2(C)[C@H]3C(=O)C=C4[C@@H]5C[C@@](C)(C(=O)O)CC[C@]5(C)CC[C@@]4(C)[C@]3(C)CC[C@@H]12 [(3), Olean-12ene-3α-hydroxy-11-oxo-30-oic-acid] | 0.6954 µg/mL | 0.7933 µg/mL | 0.6765 µg/mL | ( 2.3) % | ( 5.6) % | ( 4.9) %
